Source: patent publication EP2325185A1, “Plk inhibitor” (GPC Biotech AG, priority 2009, dated 2011)

Assays:
Format in all cases: cell-based
HCT 116 = assay: SRB cell proliferation assay, HCT 116; details: Homo sapiens, HCT-116; 72 hours, SRB; read-out: CELLULAR IC50 HCT 116
Method: (§1) Cells were exposed to the test compound racemate at various concentrations appropriate to determine an IC50 for 72 hours. Cell proliferation was measured using the SRB assay according to Shekan et al (J Natl Cancer Inst (1990) 82, 1107-112) in order to estimate the IC50 values shown in Table 3. Briefly, cells were plated in 96 well dishes 24 hours prior to compound addition at the densities specified in Table 5.1. The assay was terminated with the addition of cold TCA to a final concentration of 10% after growth medium has been removed and the plates were incubated over night at 4°C. The plates were then washed 5 times with water and 100µl of a Sulforhodamine B solution ([…]) was added to each well. The plates were then incubated for 10 minutes at room temperature before removal of unbound dye by washing with 1% acetic acid. The bound dye was solubilised with 10 mM Trizma base and the absorbance read at OD520.
(§2) Inhibitory activity of the compound (IC) was calculated as % inhibition of cell proliferation compared to cells treated with the solvent (DMSO).
(§3) Table 8.1: 18-Cell Line Panel

Plk1 = Plk1 (Homo sapiens, UniProt P53350); assay: Cellular Plk1 kinase activity: nucleophosmin (B23) Ser4 phosphorylation in HCT116 cells (MSD electrochemiluminescence); details: nocodazole-treated, 4 hours compound exposure, read-out: Biochemical IC50 Nucleophosmin assay
Method: Cellular Plk1 kinase activity was measured by quantification of nucleophosmin (B23) Ser4 phosphorylation in a cancer cell line. Nucleophosmin (B23) Ser4 is phosphorylated by Plkl, and this phosphorylation can be specifically detected by cross-reactivity of a phospho-Mekl/2 antibody that is able to recognizes a mitotic-specific phosphorylated form of nucleophosmin (B23) in a nocodazole dependent way (Zhang, H., Shi, X., Paddon, H., Hampong, M., Dai, W., and Pelech, S. (2004) B23/Nuleophosmin Serin 4 Phosphorylation Mediates Mitotic Functions of Polo-like Kinase 1. J. Biol. Chem., 279(34), 35726-35734).
Briefly, HCT116 cells (ATCC, Order No. CCL-247) were plated in 96 well dishes 24 hours prior to nocodazole treatment at 25 000 cells per well. Cells were then treated with 100 ng/ml nocodazole (Sigma-Aldrich, # M1404). […]
The cell lysates were thawed at room temperature and 40 µl were incubated on 96-well MULTI-ARRAY High Bind plates (L11XB; MSD) for 1.5 - 2 hours at room temperature. […] Then, 150 µl of 1x Read Buffer T (R92TC; MSD) were carefully added to each well and the plates were quantitatively detected for each well with a SECTOR™ Imager 6000 (MSD).
Inhibitory activity of the compound (IC) was calculated as % inhibition of nucleophosmin (B23) Ser4 phosphorylation compared to cells […].

IMR-90 = assay: SRB cell proliferation assay, IMR-90; details: Homo sapiens, IMR-90; 72 hours, SRB; read-out: CELLULAR IC50 IMR-90
Method: as §1, §2, §3

HT-29 = assay: SRB cell proliferation assay, HT-29; details: Homo sapiens, HT-29; 72 hours, SRB; read-out: CELLULAR IC50 HT-29
Method: as §1, §2, §3

Chain of Plk1 (P53350 whole entry, species assumed): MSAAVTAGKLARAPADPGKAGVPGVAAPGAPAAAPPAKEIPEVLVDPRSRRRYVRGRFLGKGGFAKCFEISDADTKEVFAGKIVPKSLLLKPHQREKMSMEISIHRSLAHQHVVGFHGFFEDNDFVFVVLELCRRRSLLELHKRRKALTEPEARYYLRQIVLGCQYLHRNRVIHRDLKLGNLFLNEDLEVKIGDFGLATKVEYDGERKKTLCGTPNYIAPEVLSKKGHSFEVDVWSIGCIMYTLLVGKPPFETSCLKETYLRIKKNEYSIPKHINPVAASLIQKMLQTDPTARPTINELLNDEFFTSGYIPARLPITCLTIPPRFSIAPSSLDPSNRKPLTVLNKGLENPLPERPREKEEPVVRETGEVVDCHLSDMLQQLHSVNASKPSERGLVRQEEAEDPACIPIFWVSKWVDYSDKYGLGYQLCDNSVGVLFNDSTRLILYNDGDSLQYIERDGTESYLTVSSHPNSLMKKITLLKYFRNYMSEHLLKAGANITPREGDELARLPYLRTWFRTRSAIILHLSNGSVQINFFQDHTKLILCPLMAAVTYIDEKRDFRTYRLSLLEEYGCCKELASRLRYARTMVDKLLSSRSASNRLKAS

IC50 (HCT 116): < 1 µM
IC50 (Plk1): < 0.1 µM
IC50 (HT-29): < 1 µM
SMILES: CCC1C(=O)N(C)c2cnc(Nc3ccc(C(=O)N[C@H]4CC[C@H](N5CCN(CC6CC6)CC5)CC4)cc3OC)nc2N1N(C)C (mixture of isomers) [racemic mixture containing compound 1 and (S)-enantiomer, N-[trans-4-(4-Cyclopropylmethyl-piperazin-1-yl)-cyclohexyl]-4-(8-dimethylamino-7-ethyl-5-methyl-6-oxo-5,6,7,8-tetrahydro-pteridin-2-ylamino)-3-methoxy-benzamide]
IC50 (IMR-90): > 1 µM
